According to US20200405697A1, “Antitumor Agent” (Taiho Pharmaceutical Co., Ltd, priority 2017, published 2020):

Molecular target: T1, human RNR (histidine tagged human M1 and human M2 proteins) (Homo sapiens, UniProt P23921)
T1 construct: made in house; host or cells: Escherichia coli
T1 sequence (P23921 1-792): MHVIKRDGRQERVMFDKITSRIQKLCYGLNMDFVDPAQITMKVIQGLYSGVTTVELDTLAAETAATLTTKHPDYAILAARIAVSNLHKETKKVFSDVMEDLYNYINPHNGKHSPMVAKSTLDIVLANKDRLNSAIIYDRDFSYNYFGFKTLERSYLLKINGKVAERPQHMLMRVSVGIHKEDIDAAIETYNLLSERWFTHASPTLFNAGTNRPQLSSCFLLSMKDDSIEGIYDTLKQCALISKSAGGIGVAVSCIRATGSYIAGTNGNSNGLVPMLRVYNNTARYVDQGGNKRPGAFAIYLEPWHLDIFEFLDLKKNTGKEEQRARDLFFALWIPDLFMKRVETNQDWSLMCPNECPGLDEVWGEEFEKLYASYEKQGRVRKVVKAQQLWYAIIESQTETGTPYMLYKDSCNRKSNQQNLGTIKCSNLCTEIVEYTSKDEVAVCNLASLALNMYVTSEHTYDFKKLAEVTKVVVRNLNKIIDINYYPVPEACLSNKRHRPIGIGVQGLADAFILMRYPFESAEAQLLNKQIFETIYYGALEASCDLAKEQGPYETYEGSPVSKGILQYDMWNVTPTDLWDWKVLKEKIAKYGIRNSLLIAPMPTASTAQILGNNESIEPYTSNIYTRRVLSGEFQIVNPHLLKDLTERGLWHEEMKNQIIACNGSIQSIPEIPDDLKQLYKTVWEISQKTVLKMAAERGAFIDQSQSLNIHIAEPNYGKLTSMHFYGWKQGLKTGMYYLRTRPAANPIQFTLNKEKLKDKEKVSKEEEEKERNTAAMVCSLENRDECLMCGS
Experiment: Human RNR inhibition effect (dCDP formation from CDP)
Assay type: biochemical
Settings: 10 μM CDP, 37° C. for 30 minutes, read-out: RNR inhibitory activity IC50
Procedure, shortened: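 His-tagged human M1 (isoform 1) and N-terminal 59-aa-truncated M2 (isoform 2), E. coli-expressed, Ni-purified, preincubated 20 min with compound (1% DMSO). Reaction with 10 μM CDP, 2 mM ATP, 0.24 mM NADPH, 6 mM DTT, 4 mM Mg acetate, 100 mM KCl, 50 mM HEPES pH 7.2, 30 min at 37° C. dCDP formed quantified by reverse-phase HPLC after heat stop.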

| IC50 | SMILES |
| --- | --- |
| 710 nM | Cc1ccc(F)c([C@@H](C)[C@H](NS(=O)(=O)c2cccc3[nH]ccc23)c2n[nH]c(=O)o2)c1C [Example 152, N-((1S,2R)-2-(6-fluoro-2,3-dimethylphenyl)-1-(5-oxo-4,5-dihydro-1,3,4-oxadiazol-2-yl)propyl)-1H-indole-4-sulfonamide] |
| 110 nM | Cc1ccc(F)c([C@@H](C)[C@H](NS(=O)(=O)c2ccc(Cl)c3cccnc23)c2n[nH]c(=O)o2)c1C [Example 153, 5-chloro-N-((1S,2R)-2-(6-fluoro-2,3-dimethylphenyl)-1-(5-oxo-4,5-dihydro-1,3,4-oxadiazol-2-yl)propyl)quinoline-8-sulfonamide] |
| 130 nM | Cc1ccc(F)c([C@@H](C)[C@H](NS(=O)(=O)c2ccc(Cl)c(C(=O)N3CCC4(COC4)C3)n2)c2n[nH]c(=O)o2)c1C [Example 155, 5-chloro-N-((1S,2R)-2-(6-fluoro-2,3-dimethylphenyl)-1-(5-oxo-4,5-dihydro-1,3,4-oxadiazol-2-yl)propyl)-6-(2-oxa-6-aza-spiro[3.4]octane-6-carbonyl)pyridine-2-sulfonamide] |
| 80 nM | Cc1ccc(F)c([C@@H](C)[C@H](NS(=O)(=O)c2ccc(Cl)c(C(=O)N3CCC4(CC3)COC4)n2)c2n[nH]c(=O)o2)c1C [Example 156, 5-chloro-N-((1S,2R)-2-(6-fluoro-2,3-dimethylphenyl)-1-(5-oxo-4,5-dihydro-1,3,4-oxadiazol-2-yl)propyl)-6-(2-oxa-7-azaspiro[3.5]nonane-7-carbonyl)pyridine-2-sulfonamide] |
| 100 nM | CC(=O)NC1CCOc2c(S(=O)(=O)N[C@H](c3n[nH]c(=O)o3)[C@H](C)c3c(F)ccc(C)c3C)ccc(Cl)c21 (stereo partly drawn) [Example 157, N-(5-chloro-8-(N-((1S,2R)-2-(6-fluoro-2,3-dimethylphenyl)-1-(5-oxo-4,5-dihydro-1,3,4-oxadiazol-2-yl)propyl)sulfamoyl)chroman-4-yl)acetamide] |
| 450 nM | Cc1ccc(F)c([C@@H](C)[C@H](NS(=O)(=O)c2ccc(Cl)s2)c2n[nH]c(=O)o2)c1C [Example 158, 5-chloro-N-((1S,2R)-2-(6-fluoro-2,3-dimethylphenyl)-1-(5-oxo-4,5-dihydro-1,3,4-oxadiazol-2-yl)propyl)thiophene-2-sulfonamide] |
| 160 nM | Cc1ccc(F)c([C@@H](C)[C@H](NS(=O)(=O)c2ccc(F)c3c2OCCC3=O)c2n[nH]c(=O)o2)c1C [Example 159, 5-fluoro-N-((1S,2R)-2-(6-fluoro-2,3-dimethylphenyl)-1-(5-oxo-4,5-dihydro-1,3,4-oxadiazol-2-yl)propyl)-4-oxochroman-8-sulfonamide] |
| 280 nM | Cc1ccc(F)c([C@@H](C)[C@H](NS(=O)(=O)c2ccc(Cl)c(-c3nnn[nH]3)c2)c2n[nH]c(=O)o2)c1C [Example 161, 4-chloro-N-((1S,2R)-2-(6-fluoro-2,3-dimethylphenyl)-1-(5-oxo-4,5-dihydro-1,3,4-oxadiazol-2-yl)propyl)-3-(1H-tetrazol-5-yl)benzenesulfonamide] |
| 740 nM | Cc1ccc(F)c([C@@H](C)[C@H](NS(=O)(=O)c2ccc3c(c2)CC(=O)N3)c2n[nH]c(=O)o2)c1C [Example 162, N-((1S,2R)-2-(6-fluoro-2,3-dimethylphenyl)-1-(5-oxo-4,5-dihydro-1,3,4-oxadiazol-2-yl)propyl)-2-oxoindoline-5-sulfonamide] |
| 330 nM | Cc1ccc(F)c([C@@H](C)[C@H](NS(=O)(=O)c2cccc3c2OCCO3)c2n[nH]c(=O)o2)c1C [Example 164, N-((1S,2R)-2-(6-fluoro-2,3-dimethylphenyl)-1-(5-oxo-4,5-dihydro-1,3,4-oxadiazol-2-yl)propyl)-2,3-dihydrobenzo[b][1,4]dioxin-5-sulfonamide] |
| 830 nM | Cc1ccc(F)c([C@@H](C)[C@H](NS(=O)(=O)c2ccc3[nH]c(=O)[nH]c3c2)c2n[nH]c(=O)o2)c1C [Example 165, N-((1S,2R)-2-(6-fluoro-2,3-dimethylphenyl)-1-(5-oxo-4,5-dihydro-1,3,4-oxadiazol-2-yl)propyl)-2-oxo-2,3-dihydro-1H-benzo[d]imidazole-5-sulfonamide] |
| 80 nM | CC(=O)OC1(C)CCOc2c(S(=O)(=O)N[C@H](c3n[nH]c(=O)o3)[C@H](C)c3c(F)ccc(Br)c3C)ccc(Cl)c21 (some centres unmarked) [Example 167] |
| 190 nM | Cc1ccc(F)c([C@@H](C)[C@H](NS(=O)(=O)c2ccc(F)c(S(C)(=O)=O)c2)c2n[nH]c(=O)o2)c1C [Example 169, 4-fluoro-N-((1S,2R)-2-(6-fluoro-2,3-dimethylphenyl)-1-(5-oxo-4,5-dihydro-1,3,4-oxadiazol-2-yl)propyl)-3-(methylsulfonyl)benzenesulfonamide] |
| 470 nM | Cc1ccc(S(=O)(=O)N[C@H](c2n[nH]c(=O)o2)[C@H](C)c2c(F)ccc(C)c2C)cc1S(=O)(=O)N1CCCCC1 [Example 171, N-((1S,2R)-2-(6-fluoro-2,3-dimethylphenyl)-1-(5-oxo-4,5-dihydro-1,3,4-oxadiazol-2-yl)propyl)-4-methyl-3-(piperidin-1-ylsulfonyl)benzenesulfonamide] |
| 820 nM | Cc1ccc(F)c([C@@H](C)[C@H](NS(=O)(=O)c2ccc3[nH]c(=O)c(=O)[nH]c3c2)c2n[nH]c(=O)o2)c1C [Example 172, N-((1S,2R)-2-(6-fluoro-2,3-dimethylphenyl)-1-(5-oxo-4,5-dihydro-1,3,4-oxadiazol-2-yl)propyl)-2,3-dioxo-1,2,3,4-tetrahydroquinoxaline-6-sulfonamide] |
| 130 nM | Cc1ccc(F)c([C@@H](C)[C@H](NS(=O)(=O)c2ccc3c(c2)OCCO3)c2n[nH]c(=O)o2)c1C [Example 173, N-((1S,2R)-2-(6-fluoro-2,3-dimethylphenyl)-1-(5-oxo-4,5-dihydro-1,3,4-oxadiazol-2-yl)propyl)-2,3-dihydrobenzo[b][1,4]dioxin-6-sulfonamide] |
| 350 nM | Cc1ccc(F)c([C@@H](C)[C@H](NS(=O)(=O)c2ccc3c(c2)C(=O)CCC3)c2n[nH]c(=O)o2)c1C [Example 174, N-((1S,2R)-2-(6-fluoro-2,3-dimethylphenyl)-1-(5-oxo-4,5-dihydro-1,3,4-oxadiazol-2-yl)propyl)-8-oxo-5,6,7,8-tetrahydronaphthalene-2-sulfonamide] |
| 810 nM | Cc1ccc(F)c([C@@H](C)[C@H](NS(=O)(=O)c2ccc(Cl)c(S(N)(=O)=O)c2)c2n[nH]c(=O)o2)c1C [Example 176, 4-chloro-N1-((1S,2R)-2-(6-fluoro-2,3-dimethylphenyl)-1-(5-oxo-4,5-dihydro-1,3,4-oxadiazol-2-yl)propyl)benzene-1,3-disulfonamide] |
| 170 nM | COC(=O)c1c(F)ccc(S(=O)(=O)N[C@H](c2n[nH]c(=O)o2)[C@H](C)c2c(F)ccc(C)c2C)c1F [Example 178, methyl 2,6-difluoro-3-(N-((1S,2R)-2-(6-fluoro-2,3-dimethylphenyl)-1-(5-oxo-4,5-dihydro-1,3,4-oxadiazol-2-yl)propyl)sulfamoyl)benzoate] |
| 280 nM | Cc1ccc(F)c([C@@H](C)[C@H](NS(=O)(=O)c2ccc3c(c2)C(=O)CCO3)c2n[nH]c(=O)o2)c1C [Example 179, N-((1S,2R)-2-(6-fluoro-2,3-dimethylphenyl)-1-(5-oxo-4,5-dihydro-1,3,4-oxadiazol-2-yl)propyl)-4-oxochroman-6-sulfonamide] |
